pIC50: −log10 of the molar value.
Target: PDE10A (Homo sapiens (Human), UniProt Q9Y233)
Test: PDE10A inhibition assay
Format: biochemical
Protocol: Active PDE10A enzyme is prepared in a number of ways for use in PDE assays (Loughney, K. et al. Gene 1999, 234, 109-117; Fujishige, K. et al. Eur J. Biochem. 1999, 266, 1118-1127 and Soderling, S. et al. Proc. Natl. Acad. Sci. 1999, 96, 7071-7076). PDE10A can be expressed as full-length proteins or as truncated proteins, as long as they express the catalytic domain. PDE10A can be prepared in different cell types, for example insect cells or E. coli. An example of a method to obtain catalytically active PDE10A is as follows: The catalytic domain of human PDE10A (amino acids 440-779 from the sequence with accession number NP 006652) is amplified from total human brain total RNA by standard RT-PCR and is cloned into the BamH1 and Xho1 sites of the pET28a vector (Novagen). Expression in coli is performed according to standard protocols. Briefly, the expression plasmids are transformed into the BL21(DE3) E. coli strain, and 50 mL cultures inoculated with the cells allowed to grow to an OD600 of 0.4-0.6 before protein expression is induced with 0.5 mM IPTG. Following induction, the cells are incubated overnight at room temperature, after which the cells are collected by centrifugation. Cells expressing PDE10A are resuspended in 12 mL (50 mM TRIS-HCl-pH8.0, 1 mM MgCl2 and protease inhibitors). The cells are lysed by sonication, and after all cells are lysed, TritonX100 is added according to Novagen protocols.
A PDE10A assay may for example, be performed as follows: The assay is performed in 60 uL samples containing a fixed amount of the relevant PDE enzyme (sufficient to convert 20-25% of the cyclic nucleotide substrate); a buffer (50 mM HEPES7.6; 10 mM MgCl2; 0.02% Tween20), 0.1 mg/ml BSA, 225 pCi of ^3H-labelled cyclic nucleotide substrate, tritium labeled cAMP to a final concentration of 5 nM and varying amounts of inhibitors. Reactions are initiated by addition of the cyclic nucleotide substrate, and reactions are allowed to proceed for one hr at room temperature before being terminated through mixing with 15 uL 8 mg/mL yttrium silicate SPA beads (Amersham). The beads are allowed to settle for one hr in the dark before the plates are counted in a Wallac 1450 Microbeta counter. The measured signal can be converted to activity relative to an uninhibited control (100%) and IC50 values can be calculated using the Xlfit extension to EXCEL.

Sequence of PDE10A (Q9Y233 716-1055): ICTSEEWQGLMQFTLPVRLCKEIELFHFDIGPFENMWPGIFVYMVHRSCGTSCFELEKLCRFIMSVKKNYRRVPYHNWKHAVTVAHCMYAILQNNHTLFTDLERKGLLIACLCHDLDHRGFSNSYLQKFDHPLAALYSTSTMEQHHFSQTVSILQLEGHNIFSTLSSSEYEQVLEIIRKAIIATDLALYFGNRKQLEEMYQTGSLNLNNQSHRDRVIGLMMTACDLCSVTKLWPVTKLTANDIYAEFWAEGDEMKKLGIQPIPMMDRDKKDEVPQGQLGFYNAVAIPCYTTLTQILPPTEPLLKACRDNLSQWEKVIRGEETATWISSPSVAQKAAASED

Row | Compound | pIC50
1 | Cc1cc(C)n2nc(CCc3nc(-c4cccs4)cn3C)nc2n1 [5,7-Dimethyl-2-[2-(1-methyl-4-thiophen-2-yl-1H-imidazol-2-yl)-ethyl]-[1,2,4]triazolo[1,5-a]pyrimidine] | 8.38
2 | Cc1cccc2nc(/C=C/c3nc(-c4ccco4)cn3COCC[Si](C)(C)C)nn12 [2-{(E)-2-[4-Furan-2-yl-1-(2-trimethylsilanyl-ethoxymethyl)-1H-imidazol-2-yl]-vinyl}-5-methyl-[1,2,4]triazolo[1,5-a]pyridine] | 7.34
3 | COc1cccn2nc(CCc3nc(-c4cccs4)cn3C)nc12 [8-Methoxy-2-[2-(1-methyl-4-thiophen-2-yl-1H-imidazol-2-yl)-ethyl]-[1,2,4]triazolo[1,5-a]pyridine] | 8.35
4 | COCCn1cc(-c2cncs2)nc1CCc1cn2c(C)cc(C)nc2n1 [2-{2-[1-(2-Methoxy-ethyl)-4-thiazol-5-yl-1H-imidazol-2-yl]-ethyl}-5,7-dimethyl-imidazo[1,2-a]pyrimidine] | 6.68
5 | COc1cccn2nc(/C=C/c3nc(-c4ccsc4)cn3C)nc12 [8-Methoxy-2-[(E)-2-(1-methyl-4-thiophen-3-yl-1H-imidazol-2-yl)-vinyl]-[1,2,4]triazolo[1,5-a]pyridine] | 7.28
6 | Cc1cc(C)n2cc(CCc3nc(-c4cccs4)cn3COCC[Si](C)(C)C)nc2n1 [5,7-Dimethyl-2-{2-[4-thiophen-2-yl-1-(2-trimethylsilanyl-ethoxymethyl)-1H-imidazol-2-yl]-ethyl}-imidazo[1,2-a]pyrimidine] | 8.02
7 | Cc1ncc(C)n2nc(CCc3nc(-c4cccnc4)cn3C)nc12 [5,8-Dimethyl-2-[2-(1-methyl-4-pyridin-3-yl-1H-imidazol-2-yl)-ethyl]-[1,2,4]triazolo[1,5-a]pyrazine] | 8.05
8 | Cc1cccc2nc(CCc3nc(-c4cccs4)cn3C[C@@H](O)CN3CCCC3)nn12 [(S)-1-{2-[2-(5-Methyl-[1,2,4]triazolo[1,5-a]pyridin-2-yl)-ethyl]-4-thiophen-2-yl-imidazol-1-yl}-3-pyrrolidin-1-yl-propan-2-ol] | 7.24
9 | COc1ccc(C)n2nc(CCc3nc(-c4ccoc4)cn3C)nc12 [2-[2-(4-Furan-3-yl-1-methyl-1H-imidazol-2-yl)-ethyl]-8-methoxy-5-methyl-[1,2,4]triazolo[1,5-a]pyridine] | 8.40
10 | COc1ccc(C)n2nc(CCc3nc(-c4cccs4)cn3CCN3CCOCC3)nc12 [8-Methoxy-5-methyl-2-{2-[1-(2-morpholin-4-yl-ethyl)-4-thiophen-2-yl-1H-imidazol-2-yl]-ethyl}-[1,2,4]triazolo[1,5-a]pyridine] | 9.48
11 | COCC(O)Cn1cc(-c2cccs2)nc1CCc1cn2c(C)cc(C)nc2n1 (stereo not shown) [1-{2-[2-(5,7-Dimethyl-imidazo[1,2-a]pyrimidin-2-yl)-ethyl]-4-thiophen-2-yl-imidazol-1-yl}-3-methoxy-propan-2-ol] | 8.10
12 | Cc1cnc(C)n2nc(CCc3nc(-c4nccs4)cn3C)nc12 [,8-Dimethyl-2-[2-(1-methyl-4-thiazol-2-yl-1H-imidazol-2-yl)-ethyl]-[1,2,4]triazolo[1,5-c]pyrimidine] | 7.92
13 | Cc1cc(C)n2cc(/C=C/c3nc(-c4cccs4)cn3C)nc2n1 [5,7-Dimethyl-2-[(E)-2-(1-methyl-4-thiophen-2-yl-1H-imidazol-2-yl)-vinyl]-imidazo[1,2-a]pyrimidine] | 8.06
14 | Cc1cccn2nc(CCc3nc(-c4cccs4)cn3C)nc12 [8-Methyl-2-[2-(1-methyl-4-thiophen-2-yl-1H-imidazol-2-yl)-ethyl]-[1,2,4]triazolo[1,5-a]pyridine] | 7.82
15 | Cc1cc(C)n2cc(/C=C/c3nc(-c4ccsc4)cn3C)nc2n1 [5,7-Dimethyl-2-[(E)-2-(1-methyl-4-thiophen-3-yl-1H-imidazol-2-yl)-vinyl]-imidazo[1,2-a]pyrimidine] | 7.25
16 | Cc1cc(C)n2cc(CCc3nc(-c4cncs4)cn3CC(O)c3ccc(Cl)cc3)nc2n1 (stereo not shown) [1-(4-Chloro-phenyl)-2-{2-[2-(5,7-dimethyl-imidazo[1,2-a]pyrimidin-2-yl)-ethyl]-4-thiazol-5-yl-imidazol-1-yl}-ethanol] | 8.24
17 | COc1ccc(C)n2nc(CCc3nc(-c4ccsc4)cn3C)nc12 [8-Methoxy-5-methyl-2-[2-(1-methyl-4-thiophen-3-yl-1H-imidazol-2-yl)-ethyl]-[1,2,4]triazolo[1,5-a]pyridine] | 8.77

Row | Compound | pIC50
18 | COc1cccn2nc(/C=C/c3nc(-c4cscc4C)cn3C)nc12 [8-Methoxy-2-{(E)-2-[1-methyl-4-(4-methyl-thiophen-3-yl)-1H-imidazol-2-yl]-vinyl}-[1,2,4]triazolo[1,5-a]pyridine] | 7.26
19 | Cc1ccc(C)n2nc(CCc3nc(-c4cccs4)cn3C)nc12 [5,8-Dimethyl-2-[2-(1-methyl-4-thiophen-2-yl-1H-imidazol-2-yl)-ethyl]-[1,2,4]triazolo[1,5-a]pyridine] | 9.00
20 | Cc1cc(C)n2nc(CCc3nc(-c4cccnc4)cn3C)nc2n1 [5,7-Dimethyl-2-[2-(1-methyl-4-pyridin-3-yl-1H-imidazol-2-yl)-ethyl]-[1,2,4]triazolo[1,5-a]pyrimidine] | 7.36
21 | COc1cccn2nc(CCc3nc(-c4cccnc4)c[nH]3)nc12 [8-Methoxy-2-[2-(4-pyridin-3-yl-1H-imidazol-2-yl)-ethyl]-[1,2,4]triazolo[1,5-a]pyridine] | 6.57
22 | Cc1cc(C)n2cc(CCc3nc(-c4cccs4)cn3C3CCCC3)nc2n1 [2-[2-(1-Cyclopentyl-4-thiophen-2-yl-1H-imidazol-2-yl)-ethyl]-5,7-dimethyl-imidazo[1,2-a]pyrimidine] | 7.34
23 | Cc1ccc(C)n2nc(CCc3nc(-c4cccnc4)cn3C)nc12 [5,8-Dimethyl-2-[2-(1-methyl-4-pyridin-3-yl-1H-imidazol-2-yl)-ethyl]-[1,2,4]triazolo[1,5-a]pyridine] | 8.24
24 | Cc1cccc2nc(CCc3nc(-c4cccnc4)cn3C)nn12 [5-Methyl-2-[2-(1-methyl-4-pyridin-3-yl-1H-imidazol-2-yl)-ethyl]-[1,2,4]triazolo[1,5-a]pyridine] | 7.15
25 | COc1cccn2nc(CCc3nc(-c4ccsc4)cn3C)nc12 [8-Methoxy-2-[2-(1-methyl-4-thiophen-3-yl-1H-imidazol-2-yl)-ethyl]-[1,2,4]triazolo[1,5-a]pyridine] | 7.80
26 | Cc1ccc(-c2cn(COCC[Si](C)(C)C)c(/C=C/c3nc4cccc(C)n4n3)n2)s1 [5-Methyl-2-{(E)-2-[4-(5-methyl-thiophen-2-yl)-1-(2-trimethylsilanyl-ethoxymethyl)-1H-imidazol-2-yl]-vinyl}-[1,2,4]triazolo[1,5-a]pyridine] | 6.68
27 | COc1ccc(C)n2nc(/C=C/c3nc(-c4cccs4)cn3C)nc12 [8-Methoxy-5-methyl-2-[(E)-2-(1-methyl-4-thiophen-2-yl-1H-imidazol-2-yl)-vinyl]-[1,2,4]triazolo[1,5-a]pyridine] | 8.57
28 | Cc1cccc2nc(CCc3nc(-c4ccsc4)c[nH]3)nn12 [5-Methyl-2-[2-(4-thiophen-3-yl-1H-imidazol-2-yl)-ethyl]-[1,2,4]triazolo[1,5-a]pyridine] | 8.24
29 | Cc1cccc2nc(CCc3nc(-c4cccs4)cn3C[C@@H](O)CN3CCOCC3)nn12 [(S)-1-{2-[2-(5-Methyl-[1,2,4]triazolo[1,5-a]pyridin-2-yl)-ethyl]-4-thiophen-2-yl-imidazol-1-yl}-3-morpholin-4-yl-propan-2-ol] | 7.85
30 | C#CCn1cc(-c2cccs2)nc1CCc1nc2c(OC)ccc(C)n2n1 [8-Methoxy-5-methyl-2-[2-(1-prop-2-ynyl-4-thiophen-2-yl-1H-imidazol-2-yl)-ethyl]-[1,2,4]triazolo[1,5-a]pyridine] | 8.39
31 | COCC(O)Cn1cc(-c2cccs2)nc1CCc1nc2c(C)cccn2n1 (stereo not shown) [1-Methoxy-3-{2-[2-(8-methyl-[1,2,4]triazolo[1,5-a]pyridin-2-yl)-ethyl]-4-thiophen-2-yl-imidazol-1-yl}-propan-2-ol] | 8.08
32 | COc1ccc(C)n2nc(CCc3nc(-c4cccs4)cn3C)nc12 [8-Methoxy-5-methyl-2-[2-(1-methyl-4-thiophen-2-yl-1H-imidazol-2-yl)-ethyl]-[1,2,4]triazolo[1,5-a]pyridine] | 8.82
33 | COc1cccn2nc(CCc3nc(-c4ccc(C)o4)c[nH]3)nc12 [8-Methoxy-2-{2-[4-(5-methyl-furan-2-yl)-1H-imidazol-2-yl]-ethyl}-[1,2,4]triazolo[1,5-a]pyridine] | 6.92
34 | Cc1cc(C)n2cc(CCc3nc(-c4cccs4)cn3CCN3CCOCC3)nc2n1 [5,7-Dimethyl-2-{2-[1-(2-morpholin-4-yl-ethyl)-4-thiophen-2-yl-1H-imidazol-2-yl]-ethyl}-imidazo[1,2-a]pyrimidine] | 7.44
